Assay: Metabolic stability in human liver microsomes
Assay type: in vitro ADME
Conditions: 0.25 μM test compound; for half-life at 0.25 μM: 2 mM NADPH, 37° C.; for CLint scaled at 0.25 μM: human liver microsomes
Protocol: Microsomal Assay: Human liver microsomes (20 mg/mL) were obtained from Xenotech, LLC (Lenexa, Kans.). β-nicotinamide adenine dinucleotide phosphate, reduced form (NADPH), magnesium chloride (MgCl2), and dimethyl sulfoxide (DMSO) were purchased from Sigma-Aldrich.
Determination of Metabolic Stability: 7.5 mM stock solutions of test compounds of structural formula (I) (e.g., of an embodiment or aspect of embodiment thereof described herein) or structural formula (II), or pharmaceutically acceptable salt thereof, were prepared in DMSO. The 7.5 mM stock solutions were diluted to 12.5-50 μM in acetonitrile (ACN). The 20 mg/mL human liver microsomes were diluted to 0.625 mg/mL in 0.1 M potassium phosphate buffer, pH 7.4, containing 3 mM MgCl2. The diluted microsomes were added to wells of a 96-well deep-well polypropylene plate in triplicate. A 10 μL aliquot of the 12.5-50 μM test compound was added to the microsomes and the mixture was pre-warmed for 10 minutes. Reactions were initiated by addition of pre-warmed NADPH solution. The final reaction volume was 0.5 mL and contained […] human liver microsomes, 0.25 μM test compound, and 2 mM NADPH in 0.1 M potassium phosphate buffer, pH 7.4, and 3 mM MgCl2. The reaction mixtures were incubated at 37° C., and 50 μL aliquots were removed at 0, 5, 10, 20, and 30 minutes and added to shallow-well 96-well plates which contain 50 μL of ice-cold ACN (acetonitrile) with internal standard to stop the reactions. The plates were stored at 4° C. for 20 minutes after which 100 μL of water was added to the wells of the plate before centrifugation to pellet precipitated proteins. Supernatants were transferred to another 96-well plate and analyzed for amounts of parent remaining by LC-MS/MS using an Applied Bio-systems API 4000 mass spectrometer. The same procedure was followed for the non-deuterated counterpart of the compound of Formula I and the positive control, 7-ethoxycoumarin (1 μM). Testing was done in triplicate.
Data analysis: The in vitro t1/2s for test compounds were calculated from the slopes of the linear regression of % parent remaining (ln) vs incubation time relationship.
k=−[slope of linear regression of % parent remaining (ln) vs incubation time]
The apparent intrinsic clearance was calculated using the following equation:
CLint(mL/min/kg)=(0.693/in vitro t1/2)(Incubation Volume/mg of microsomes)(45 mg microsomes/gram of liver)(20 gm of liver/kg b.w.)
Data analysis was performed using Microsoft Excel Software.

[1] = pH 7.4, EXP# 2503, 4.0 mg/mL human liver microsomes
[2] = pH 7.4, EXP#2503, apparent intrinsic clearance
[3] = pH 7.4, EXP# 2506, 4.0 mg/mL human liver microsomes
[4] = pH 7.4, EXP# 2506, apparent intrinsic clearance

Row | half-life at 0.25 μM [1] | CLint scaled at 0.25 μM [2] | half-life at 0.25 μM [3] | CLint scaled at 0.25 μM [4] | SMILES
1 | 0.745 h | 3.5 mL/min/kg | 0.808 h | 3.2 mL/min/kg | COc1cccc([C@H](O)C2CCN(CCc3ccc(F)cc3)CC2)c1OC [volinanserin, (R)-(+)-α-(2,3-dimethoxyphenyl)-1-[2-(4-fluorophenyl)ethyl]-4-piperidinemethanol, reference compound]
2 | – | – | 1.12 h | 2.3 mL/min/kg | [2H]C([2H])([2H])Oc1cccc([C@H](O)C2CCN(CCc3ccc(F)cc3)CC2)c1OC([2H])([2H])[2H] [Compound 147, (R)-(2,3-bis(methoxy-d3)phenyl)(1-(4-fluorophenethyl)piperidin-4-yl)methanol]
3 | – | – | 1.16 h | 2.3 mL/min/kg | [2H]C([2H])([2H])Oc1cccc([C@H](O)C2CCN(CCc3ccc(F)cc3)CC2)c1OC [Compound 115, (R)-(1-(4-fluorophenethyl)piperidin-4-yl)(2-methoxy-3-(methoxy-d3)phenyl)methanol]
4 | – | – | 1.19 h | 2.4 mL/min/kg | [2H]C([2H])([2H])Oc1c(OC)cccc1[C@H](O)C1CCN(CCc2ccc(F)cc2)CC1 [Compound 131, (R)-(1-(4-fluorophenethyl)piperidin-4-yl)(3-methoxy-2-(methoxy-d3)phenyl)methanol]

Continued, molecule first:

Row | SMILES | half-life at 0.25 μM [1] | CLint scaled at 0.25 μM [2] | half-life at 0.25 μM [3] | CLint scaled at 0.25 μM [4]
5 | [2H]C([2H])([2H])Oc1cccc([C@H](O)C2([2H])C([2H])([2H])C([2H])([2H])N(C([2H])([2H])C([2H])([2H])c3ccc(F)cc3)C([2H])([2H])C2([2H])[2H])c1OC([2H])([2H])[2H] [Compound 383, (R)-(2,3-bis(methoxy-d3)phenyl)(1-(2-(4-fluorophenyl)ethyl-1,1,2,2-d4)piperidin-4-yl-2,2,3,3,4,5,5,6,6-d9)methanol] | 1.23 h | 2.3 mL/min/kg | – | –
6 | [2H]C([2H])([2H])Oc1cccc([C@H](O)C2CCN(C([2H])([2H])C([2H])([2H])c3ccc(F)cc3)CC2)c1OC([2H])([2H])[2H] [Compound 159, (R)-(2,3-bis(methoxy-d3)phenyl)(1-(2-(4-fluorophenyl)ethyl-1,1,2,2-d4)piperidin-4-yl)methanol] | – | – | 1.42 h | 1.9 mL/min/kg
7 | [2H]C([2H])([2H])Oc1cccc([C@H](O)C2CCN(C([2H])([2H])Cc3ccc(F)cc3)CC2)c1OC([2H])([2H])[2H] [Compound 151, (R)-(2,3-bis(methoxy-d3)phenyl)(1-(2-(4-fluorophenyl)ethyl-1,1-d2)piperidin-4-yl)methanol] | – | – | 1.17 h | 2.3 mL/min/kg
8 | [2H]C([2H])([2H])Oc1cccc([C@H](O)C2([2H])C([2H])([2H])C([2H])([2H])N(CCc3ccc(F)cc3)C([2H])([2H])C2([2H])[2H])c1OC([2H])([2H])[2H] [Compound 347, (R)-(2,3-bis(methoxy-d3)phenyl)(1-(4-fluorophenethyl)piperidin-4-yl-2,2,3,3,4,5,5,6,6-d9)methanol] | 0.815 h | 3.2 mL/min/kg | – | –
9 | [2H]C([2H])([2H])Oc1cccc([C@]([2H])(O)C2CCN(CCc3ccc(F)cc3)CC2)c1OC([2H])([2H])[2H] [Compound 148, (R)-(2,3-bis(methoxy-d3)phenyl)(1-(4-fluorophenethyl)piperidin-4-yl)methan-d-ol] | – | – | 1.19 h | 2.2 mL/min/kg
10 | [2H]C1([2H])N(CCc2ccc(F)cc2)C([2H])([2H])C([2H])([2H])C([2H])([C@@H](O)c2cccc(OC)c2OC)C1([2H])[2H] [Compound 203, (R)-(2,3-dimethoxyphenyl)(1-(4-fluorophenethyl)piperidin-4-yl-2,2,3,3,4,5,5,6,6-d9)methanol] | 0.794 h | 3.4 mL/min/kg | – | –
11 | [2H]C([2H])([2H])Oc1cccc([C@H](O)C2([2H])C([2H])([2H])C([2H])([2H])N(C([2H])([2H])Cc3ccc(F)cc3)C([2H])([2H])C2([2H])[2H])c1OC([2H])([2H])[2H] [Compound 359, (R)-(2,3-bis(methoxy-d3)phenyl)(1-(2-(4-fluorophenyl)ethyl-1,1-d2)piperidin-4-yl-2,2,3,3,4,5,5,6,6-d9)methanol] | 1.1 h | 2.4 mL/min/kg | – | –
12 | [2H]C([2H])(Cc1ccc(F)cc1)N1C([2H])([2H])C([2H])([2H])C([2H])([C@@H](O)c2cccc(OC)c2OC)C([2H])([2H])C1([2H])[2H] [Compound 215, (R)-(2,3-dimethoxyphenyl)(1-(2-(4-fluorophenyl)ethyl-1,1-d2)piperidin-4-yl-2,2,3,3,4,5,5,6,6-d9)methanol] | 0.777 h | 3.4 mL/min/kg | – | –
